Legend:
[1] = tested on: TNF-α production in LPS stimulated THP-1 cells; assay: Inhibition of TNF-α production in LPS stimulated THP-1 cells (ELISA); type: cell-based, human; settings: mean relative secretion, basal = 0%; for TNF-α at 40 μM peptide: LPS-stimulated level without peptide = 100%; for TNF-α at 4 μM peptide / TNF-α at 10 μM peptide: stimulated = 100%
Experimental: (§1) After 6 hours of incubation at +37° C., 5% CO2 and in a humid atmosphere, the cell supernatants were collected, centrifuged and kept frozen in −20° C. until analyzed for TNF-α content by ELISA (R&D Systems, Minneapolis, Minn., USA). The results are presented as mean relative secretion (%), with stimulated TNF-α level without peptide added set to 100% and basal secretion set to 0% (Table 2).
as §1, with “incubation,” for “incubation at +37° C., 5% CO2 and in a humid atmosphere,”, “centrifuged,” for “centrifuged”, “5).” for “2).”

[2] = tested on: S. aureus (CCUG 1800); assay: Minimal microbicidal concentration (MMC99) assay, S. aureus; type: cell-based; settings: 2 hours; for MMC99 μM in 50% SWF: 50% heat inactivated simulated wound fluid
Experimental: Antimicrobial Activity was Measured as Bactericidal Effect on S. aureus Using Minimal Microbicidal Concentration, MMC99, Assay)
S. aureus (#1800; CCUG, Gothenburg, Sweden) cultured on blood-agar plates [Columbia agar (Oxoid, Basingstoke, UK) supplemented with 5% defibrinated horse blood (National Veterinary Institute (SVA), Uppsala, Sweden)] were transferred to brain heart infusion broth (3.7% BHI; Difco, BD Diagnostics, Franklin Lakes, N.J., USA) and incubated in a shaker at 250 rpm+37° C. over night. The culture was thereafter be diluted 1:10 in fresh BHI broth and incubated for additional two hours to reach log-phase growth. The bacteria were pelleted and suspended in 1% BHI medium (BHI broth diluted 100 times in ultra-pure water) to a concentration of 10^7 bacteria/ml as estimated by measuring optical density at 600 nm. Peptides were serially diluted by two-fold steps from 160 μM to 1.25 μM in 1% BHI medium. The peptides (100 μl) were thereafter incubated with bacteria (5 μl á 10^7 bact./ml) for 2 hours at +37° C. Drops (5 μl) of the suspension were placed on blood agar plates. The blood agar plates were incubated over night at +37° C. The MMC99 values, i.e. the lowest peptide concentration needed to achieve a 99% reduction of viable bacteria, were recorded (Table 3). The concentration of the bacterial suspension used in the assay was confirmed by viable counts on blood agar plates.
S. aureus (#1800; CCUG, Gothenburg, Sweden) cultured on blood-agar plates [Columbia agar (Oxoid, Basingstoke, UK) supplemented with 5% defibrinated horse blood (National Veterinary Institute (SVA), Uppsala, Sweden)] were transferred to brain heart infusion broth (3.7% BHI; Difco, BD Diagnostics, Franklin Lakes, N.J., USA) and incubated in a shaker at 250 rpm+37° C. over night. The culture was thereafter be diluted 1:10 in fresh BHI broth and incubated for additional two hours to reach log-phase growth. The bacteria were pelleted and suspended in 1% BHI medium (BHI broth diluted 100 times in ultra-pure water) to a final concentration of 10^7 bacteria/ml as estimated by measuring optical density at 600 nm.
Peptides were serially diluted by two-fold steps from 400 μM to 0.78 μM in either 1% BHI medium or in 50% heat inactivated simulated wound fluid [SWF, containing 1 part 0.1% peptone (Oxoid, Basingstoke, UK) in saline and 1 part fetal bovine serum, diluted 2 times in ultra-pure water].
The peptides (100 μl) were thereafter incubated with bacteria (5 μl a 10^7 bact./ml) for 2 hours at +37° C. Drops (5 μl) of the suspension were placed on blood agar plates. The blood agar plates were incubated over night at +37° C. The MMC99 values, i.e. the lowest peptide concentration needed to achieve a 99% reduction of viable bacteria were recorded (Table 6). The concentration of the bacterial suspension used in the assay was confirmed by viable counts on blood agar plates.
The antimicrobial effects of the peptides 232 (SEQ ID NO: 78), and 220 (SEQ ID NO:67) were analysed by MMC99 (minimal microbicidal concentration) assay against S. aureus (CCUG 1800), MRSA (CCUG 41879), P. aeruginosa (ATCC 15442), E. coli (CCUG 31246), S. pyogenes (CCUG 4207), P. acnes (CCUG 1794T), S. epidermidis (ATCC12228), K. pneumoniae (ATCC 13883), A. baumannii (ATCC 19606), and C. albicans (ATCC 64549). The peptides were purchased from Biopeptide Company (San Diego, Calif., USA) and Bachem AG (Bubendorf, Switzerland) and results are presented in Table 8A and 8B respectively.
Peptides were serially diluted in two different assay medium, 1% BHI medium (brain-heart infusion medium) or 50% heat inactivated simulated wound fluid (SWF), and thereafter incubated with the microorganisms for 2 hours. Drops of the suspension were placed on blood agar plates. The MMC99 values, i.e. the lowest peptide concentration needed to achieve a 99% reduction of viable microorganisms, were recorded. As presented in Table 8, all the peptides have the ability to kill microorganisms frequently appearing in infections. […]

[3] = screen 1, 99% reduction of viable bacteria

Sequence	TNF-α at 40 μM peptide ([1]; screen 1) [%]	MMC99 μM in 1% BHI medium [2, 3] [µM]	TNF-α at 4 μM peptide ([1]; screen 2) [%]	TNF-α at 10 μM peptide ([1]; screen 2) [%]	TNF-α at 40 μM peptide ([1]; screen 2) [%]	MMC99 μM in 1% BHI medium ([2]; screen 2) [µM]	MMC99 μM in 50% SWF ([2]; screen 2) [µM]
CFQWKRAMRKVR [Peptide 123]	156	20					
QSEATKRFQWLRNLRKVL [Peptide 119]	10	20					
QKRATKRFQWLRNLRKVL [Peptide 205]			91.5	89.5	28.3	12.5	50
RSLAQKLFQWLRNLRKVR [Peptide 219]			68.5	44.0	7.3	6.25	12.5
CLNFKRGVRKIR [Peptide 141]	109	20					
RWCFLWRRLMRKHRRL [Peptide 240]			78.3	59.9		12.5	25
NEADKCFQWQRNMRKVR [Peptide 109]	47	160					
QTEADKCFQWQRNMRKVR [Peptide 106] (QNEADKCFQWQRNMRKVR)	96	160					
CFQWQRKMRKVR [Peptide 143]	153	20					
QSEATKRFQWLRNLRKVLWW [Peptide 212]			90.9	85.8	25.7	12.5	100
FQWRRAIRKVR [Peptide 125]	150	20					
QSEATKLFQWQRNLRKVR [Peptide 115]	119	>160					
NSLFEKLAQWLRQLRKVR [Peptide 222]			89.2	65.9	32.9	12.5	100
WFQWQRNMRKVR [Peptide 128]	104	20					
SQPEATKCFQWQRNMRKVR [Peptide 101]	116	>160					

Source: patent US20140031296A1, “NEW SYNTHETIC PEPTIDES AND THEIR USE” (PERGAMUM AB, priority 2011, published 2014)
